Measurements taken from PMC10947197, “Acid‐Resistant BODIPY Amino Acids for Peptide‐Based Fluorescence Imaging of GPR54 Receptors in Pancreatic Islets” (Angewandte Chemie (International Ed. in English), 2023).
Numbered stars: 1 amine (or outer) side, 2 acyl side, 3 side chain; on linkers, the order of the positions; unused ones are H or OH. Square brackets hold non-standard residues; d marks the D form. Peptide text beside a SMILES is read from it. X1 = CC1=CC(C)=[N+]2C1=C(c1cccc(-c3[nH]c4ccccc4c3C[C@H](N[*:1])C(=O)[*:2])c1)c1c(C)cc(C)n1[B-]2(C#N)C#N

What was measured:
[1] = target: T1, hGPR54 (Homo sapiens, UniProt Q969F8); experiment: Calcium mobilization assay in HEK293 cells stably expressing hGPR54; assay type: cell-based; settings: HEK293 cells stably expressing hGPR54, 50,000 cells per well, Fluo4 NW Ca2+ assay kit, GraphPad Prism 9 sigmoidal fit; read-out: EC50 (Ca2+ influx, agonist)
T1 construct: expressed in transfected cells
T1 sequence (Q969F8 whole entry): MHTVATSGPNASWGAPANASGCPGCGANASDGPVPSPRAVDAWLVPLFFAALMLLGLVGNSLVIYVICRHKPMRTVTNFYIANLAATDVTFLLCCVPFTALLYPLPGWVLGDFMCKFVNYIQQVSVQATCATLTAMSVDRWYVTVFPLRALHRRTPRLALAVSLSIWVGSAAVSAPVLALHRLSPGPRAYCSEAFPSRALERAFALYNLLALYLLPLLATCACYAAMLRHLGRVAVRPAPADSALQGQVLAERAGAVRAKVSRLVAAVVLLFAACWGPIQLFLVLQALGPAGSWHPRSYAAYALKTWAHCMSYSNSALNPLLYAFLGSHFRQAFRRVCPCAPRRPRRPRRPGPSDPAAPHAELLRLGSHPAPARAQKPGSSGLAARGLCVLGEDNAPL

[2] = Stability analysis of Trp-BODIPY FlAAs under SPPS conditions; settings: r.t.; for Stability (purity by HPLC-MS): 70 μM; for Chemical stability (HPLC-MS): 70 µM;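 as to all read-outs here: chemical integrity of the BODIPY-labelled tryptophan amino acids checked after exposure to reagents used in solid-phase peptide synthesis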
Method: Next, we studied the stability of Trp‐BODIPY PLUS in TFA and compared it to that of Trp‐BODIPY (Table 2).
Analysis of t he chemical st abilit y of T rp-BO DI PY and T rp-
BODIPY PLUS under conve nt ion al SPPS condit i ons. Amino aci ds were di lut ed w it h
dif f erent rea gent mixt ur es (70 µ M , f inal v olum e 10 0 uL) a nd st irre d at r. t . f or 1 h
( c ondit i ons A-B and E-H) or 5 m i n ( c o ndit i ons C an d D).
Fmoc-T rp -BO DI PY(X)2-OH
En t ry Conditions X = F X = CN

[3] = Integrity of BODIPY core in crude peptides after cleavage with 95% TFA (HPLC-MS); assay type: physicochemical; settings: crude peptide
From the text: To study the application of Trp‐BODIPY PLUS for SPPS of fluorogenic peptides, we first prepared analogues of the model linear sequence KYRAE, which contains a range of non‐polar, positively‐charged and negatively‐charged residues with different PGs (e.g., Boc, tBu, Pbf). We performed the synthesis using standard Fmoc/tBu SPPS conditions (e.g., OxymaPure and 1‐ cyano‐2‐ethoxy‐2‐oxoethylidenaminooxy)dimethylamino‐mor‐pholino‐carbenium hexafluorophosphate (COMU) for couplings, piperidine:DMF (2 : 8) for Fmoc removal) and introduced Trp‐BODIPY PLUS at the N‐terminal end. We performed the cleavage of the labeled peptide (i.e., W(BODIPYplus)KYRAE, peptide 4, Figure 1) with 95 % TFA and compared the purity of the crude to that obtained when using the acid‐labile Trp‐BODIPY (i.e., W(BODIPY)KYRAE, peptide 5, Figure 1). […] Overall, we isolated the model peptide 4 in good yields >20 % and >95 % purity after HPLC purification (see Supporting Information for synthetic and characterization details).

[4] = test system: apoptotic cells; settings: ref [10e]; cited from earlier work
From the text: Next, we assessed whether incorporation of Trp‐BODIPY PLUS enabled retention of the molecular recognition features of bioactive peptides. […] Because Apo‐15 contains one Trp‐BODIPY residue within its sequence, we synthesized the corresponding analogue using Trp‐BODIPY PLUS as the FlAA.

## CC(C)C[C@H](NC(=O)CNC(=O)[C@H](Cc1ccccc1)NC(=O)[C@H](CO)NC(=O)[C@H](CC(N)=O)NC(=O)[C@H](Cc1c[nH]c2ccccc12)NC(=O)[C@H](CC(N)=O)NC(=O)[C@@H](N)Cc1ccc(O)cc1)C(=O)N[C@@H](CCCNC(=N)N)C(=O)N[C@@H](Cc1ccccc1)C(N)=O [KP-10, reference compound]
[1]
  EC50: 0.22 nM

## CC1=CC(C)=[N+]2C1=C(c1cccc(-c3[nH]c4ccccc4c3C[C@H](NC(=O)OCC3c4ccccc4-c4ccccc43)C(=O)O)c1)c1c(C)cc(C)n1[B-]2(F)F [Trp-BODIPY, reference compound]
[2]; 2% N2H4 in DMF, 60 min
  Stability (purity by HPLC-MS): > 95%
[2]; 95% TFA, 2.5% DTT, 60 min, DCM
  Stability (purity by HPLC-MS): < 5%
[2]; 95% TFA, 2.5% H2O, 60 min, DCM
  Stability (purity by HPLC-MS): < 5%
[2]; 95% TFA, 2.5% TIS, 60 min, DCM
  Stability (purity by HPLC-MS): < 5%
[2]; 95% TFA, 5 min, DCM
  Stability (purity by HPLC-MS): < 5%
[2]; 95% TFA, 60 min, DCM
  Stability (purity by HPLC-MS): < 5%
[2]; I2 (5 eq) in MeOH, 60 min
  Stability (purity by HPLC-MS): 38%
[2]; Pd(PPh3)4 (0.1 eq), PhSiH3 (10 eq), 60 min, DCM
  Stability (purity by HPLC-MS): > 95%
[2]; Supplementary Table 2 entry A: 1% TFA, 2.5% DTT, 1 h
  Chemical stability (HPLC-MS): > 95%
[2]; Supplementary Table 2 entry B: 5% TFA, 2.5% DTT, 1 h
  Chemical stability (HPLC-MS): 34%
[2]; Supplementary Table 2 entry C: 95% TFA, 2.5% DTT, 5 min
  Chemical stability (HPLC-MS): 7%
[2]; Supplementary Table 2 entry D: 20% piperidine: DMF, 5 min
  Chemical stability (HPLC-MS): > 95%
[2]; Supplementary Table 2 entry E: 5% NaHCO3 (aq), 1 h
  Chemical stability (HPLC-MS): > 95%
[2]; Supplementary Table 2 entry F: 5% Na2CO3 (aq), 1 h
  Chemical stability (HPLC-MS): > 95%
[2]; Supplementary Table 2 entry G: 1% DIPEA: DMF, 1 h
  Chemical stability (HPLC-MS): > 95%
[2]; Supplementary Table 2 entry H: 0.1 M HOBt: TFE, 1 h
  Chemical stability (HPLC-MS): > 95%
[2]; TBAF (3 eq), 60 min, DCM
  Stability (purity by HPLC-MS): > 95%

## CC1=CC(C)=[N+]2C1=C(c1cccc(-c3[nH]c4ccccc4c3C[C@H](NC(=O)[C@H](CC(N)=O)NC(=O)[C@@H](N)Cc3ccc(O)cc3)C(=O)N[C@@H](CC(N)=O)C(=O)N[C@@H](CO)C(=O)N[C@@H](Cc3ccccc3)C(=O)NCC(=O)N[C@@H](CC(C)C)C(=O)N[C@@H](CCCNC(=N)N)C(=O)N[C@@H](Cc3ccccc3)C(N)=O)c1)c1c(C)cc(C)n1[B-]2(C#N)C#N [peptide 7] (H-YN[X1]NSFGLRF-NH2)
[1]
  EC50: 2.5 nM

## W(BODIPY)KYRAE [peptide 5, model linear peptide KYRAE with acid-labile Trp-BODIPY at the N-terminal end]
[3]
  Stability of BODIPY core after cleavage (in words): completely degraded

## W(BODIPYplus)KYRAE [peptide 4, model linear peptide KYRAE with Trp-BODIPY PLUS at the N-terminal end]
[3]
  Stability of BODIPY core after cleavage (in words): remained fully stable

## cyclo(GRKKWFW(BODIPY)) (head to tail) [Apo-15]
[4]
  Ca2+ dependence of apoptotic cell labelling (in words): independent on the concentration of Ca^2+ ions
  Selective labelling of apoptotic cells (in words): fluorogenic probe for selective labeling of apoptotic cells
